In the kinase profiling compilation of Christmann-Franck et al. (2016):

Tests used:
Test in all cases: radiometric filter-binding kinase assay, Kinase HotSpot
Details in all cases: compound 0.5 µM; ATP 10 µM
HIPK4 (human) = HIPK4 (human) (UniProt Q8NE63)
MAP3K2 (human) = MAP3K2 (human) (UniProt Q9Y2U5)
PRKCG (human) = PRKCG (human) (UniProt P05129)
ITK (human) = ITK (human) (UniProt Q08881)
CDK5 CDK5R1 p35 (human) = CDK5 CDK5R1 p35 (human) (UniProt Q00535+Q15078)
RPS6KB2 (human) = RPS6KB2 (human) (UniProt Q9UBS0)
TSSK1B (human) = TSSK1B (human) (UniProt Q9BXA7)
Chain of TSSK1B (human) (Q9BXA7 whole entry, looked up): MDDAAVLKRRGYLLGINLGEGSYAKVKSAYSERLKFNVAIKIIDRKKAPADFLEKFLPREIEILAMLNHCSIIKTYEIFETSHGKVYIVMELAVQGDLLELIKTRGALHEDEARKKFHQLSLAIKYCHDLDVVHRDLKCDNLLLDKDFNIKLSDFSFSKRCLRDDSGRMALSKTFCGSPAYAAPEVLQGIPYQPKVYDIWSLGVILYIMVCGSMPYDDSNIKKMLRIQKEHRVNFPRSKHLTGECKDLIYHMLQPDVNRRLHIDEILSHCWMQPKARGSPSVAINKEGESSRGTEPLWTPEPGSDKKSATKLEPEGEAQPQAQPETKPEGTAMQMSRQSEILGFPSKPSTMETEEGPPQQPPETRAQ

GSK3B (human) = GSK3B (human) (UniProt P49841)
STK3 (human) = STK3 (human) (UniProt Q13188)
AURKB (human) = AURKB (human) (UniProt Q96GD4)
MAP4K4 (human) = MAP4K4 (human) (UniProt O95819)
EGFR (human) = EGFR (human) (UniProt P00533)
EPHB2 (human) = EPHB2 (human) (UniProt P29323)
Chain of EPHB2 (human) (P29323 whole entry, looked up): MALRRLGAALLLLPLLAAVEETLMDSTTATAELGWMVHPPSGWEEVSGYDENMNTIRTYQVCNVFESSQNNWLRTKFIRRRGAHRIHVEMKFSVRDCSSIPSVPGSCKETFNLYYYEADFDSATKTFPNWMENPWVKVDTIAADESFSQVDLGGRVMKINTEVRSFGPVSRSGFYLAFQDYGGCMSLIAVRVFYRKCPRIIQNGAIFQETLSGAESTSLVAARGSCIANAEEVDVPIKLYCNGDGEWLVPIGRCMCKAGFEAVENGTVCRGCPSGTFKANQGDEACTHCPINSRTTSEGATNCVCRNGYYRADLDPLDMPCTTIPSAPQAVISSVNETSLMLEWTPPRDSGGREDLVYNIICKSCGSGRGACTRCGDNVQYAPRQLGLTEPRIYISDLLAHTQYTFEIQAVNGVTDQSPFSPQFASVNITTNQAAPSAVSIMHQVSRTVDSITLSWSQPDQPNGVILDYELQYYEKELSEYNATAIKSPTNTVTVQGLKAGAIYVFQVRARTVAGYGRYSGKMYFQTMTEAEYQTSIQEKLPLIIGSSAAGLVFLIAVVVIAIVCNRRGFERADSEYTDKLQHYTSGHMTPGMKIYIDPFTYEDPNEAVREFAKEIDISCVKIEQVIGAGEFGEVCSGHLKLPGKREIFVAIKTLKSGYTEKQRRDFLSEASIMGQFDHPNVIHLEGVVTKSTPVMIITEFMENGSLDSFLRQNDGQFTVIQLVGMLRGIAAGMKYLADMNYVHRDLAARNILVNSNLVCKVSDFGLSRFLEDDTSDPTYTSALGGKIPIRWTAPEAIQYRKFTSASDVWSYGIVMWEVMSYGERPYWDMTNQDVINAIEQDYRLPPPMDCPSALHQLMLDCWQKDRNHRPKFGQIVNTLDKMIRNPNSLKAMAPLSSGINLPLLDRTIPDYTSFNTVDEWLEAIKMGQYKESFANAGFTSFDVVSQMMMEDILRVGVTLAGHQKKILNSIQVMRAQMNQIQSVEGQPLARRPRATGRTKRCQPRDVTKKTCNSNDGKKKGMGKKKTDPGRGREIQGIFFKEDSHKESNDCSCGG

CAMK1D (human) = CAMK1D (human) (UniProt Q8IU85)
MAP3K8 (human) = MAP3K8 (human) (UniProt P41279)
PRKCZ (human) = PRKCZ (human) (UniProt Q05513)
PHKG2 (human) = PHKG2 (human) (UniProt P15735)
EPHA7 (human) = EPHA7 (human) (UniProt Q15375)
ACVR1B (human) = ACVR1B (human) (UniProt P36896)
MARK3 (human) = MARK3 (human) (UniProt P27448)
EPHA5 (human) = EPHA5 (human) (UniProt P54756)
MAPKAPK2 (human) = MAPKAPK2 (human) (UniProt P49137)
PKN2 (human) = PKN2 (human) (UniProt Q16513)
PNCK (human) = PNCK (human) (UniProt Q6P2M8)
MAPK10 (human) = MAPK10 (human) (UniProt P53779)
MAP2K2 (human) = MAP2K2 (human) (UniProt P36507)
TEC (human) = TEC (human) (UniProt P42680)
PRKCI (human) = PRKCI (human) (UniProt P41743)
CLK1 (human) = CLK1 (human) (UniProt P49759)
Chain of CLK1 (human) (P49759 whole entry, looked up): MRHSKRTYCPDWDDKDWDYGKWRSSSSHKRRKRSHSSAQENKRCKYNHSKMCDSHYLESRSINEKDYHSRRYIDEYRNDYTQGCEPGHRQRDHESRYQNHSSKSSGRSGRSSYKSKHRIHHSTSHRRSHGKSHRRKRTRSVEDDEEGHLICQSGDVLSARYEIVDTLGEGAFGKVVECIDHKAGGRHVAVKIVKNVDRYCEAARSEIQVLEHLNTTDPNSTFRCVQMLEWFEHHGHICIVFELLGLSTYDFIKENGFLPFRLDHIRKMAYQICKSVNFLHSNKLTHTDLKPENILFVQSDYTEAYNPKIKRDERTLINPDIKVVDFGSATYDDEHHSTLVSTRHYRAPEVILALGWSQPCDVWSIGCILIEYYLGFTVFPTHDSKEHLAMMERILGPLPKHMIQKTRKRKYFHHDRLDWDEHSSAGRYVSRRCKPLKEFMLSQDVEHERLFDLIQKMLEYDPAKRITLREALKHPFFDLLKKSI

ROS1 (human) = ROS1 (human) (UniProt P08922)
Chain of ROS1 (human) (P08922 whole entry, looked up): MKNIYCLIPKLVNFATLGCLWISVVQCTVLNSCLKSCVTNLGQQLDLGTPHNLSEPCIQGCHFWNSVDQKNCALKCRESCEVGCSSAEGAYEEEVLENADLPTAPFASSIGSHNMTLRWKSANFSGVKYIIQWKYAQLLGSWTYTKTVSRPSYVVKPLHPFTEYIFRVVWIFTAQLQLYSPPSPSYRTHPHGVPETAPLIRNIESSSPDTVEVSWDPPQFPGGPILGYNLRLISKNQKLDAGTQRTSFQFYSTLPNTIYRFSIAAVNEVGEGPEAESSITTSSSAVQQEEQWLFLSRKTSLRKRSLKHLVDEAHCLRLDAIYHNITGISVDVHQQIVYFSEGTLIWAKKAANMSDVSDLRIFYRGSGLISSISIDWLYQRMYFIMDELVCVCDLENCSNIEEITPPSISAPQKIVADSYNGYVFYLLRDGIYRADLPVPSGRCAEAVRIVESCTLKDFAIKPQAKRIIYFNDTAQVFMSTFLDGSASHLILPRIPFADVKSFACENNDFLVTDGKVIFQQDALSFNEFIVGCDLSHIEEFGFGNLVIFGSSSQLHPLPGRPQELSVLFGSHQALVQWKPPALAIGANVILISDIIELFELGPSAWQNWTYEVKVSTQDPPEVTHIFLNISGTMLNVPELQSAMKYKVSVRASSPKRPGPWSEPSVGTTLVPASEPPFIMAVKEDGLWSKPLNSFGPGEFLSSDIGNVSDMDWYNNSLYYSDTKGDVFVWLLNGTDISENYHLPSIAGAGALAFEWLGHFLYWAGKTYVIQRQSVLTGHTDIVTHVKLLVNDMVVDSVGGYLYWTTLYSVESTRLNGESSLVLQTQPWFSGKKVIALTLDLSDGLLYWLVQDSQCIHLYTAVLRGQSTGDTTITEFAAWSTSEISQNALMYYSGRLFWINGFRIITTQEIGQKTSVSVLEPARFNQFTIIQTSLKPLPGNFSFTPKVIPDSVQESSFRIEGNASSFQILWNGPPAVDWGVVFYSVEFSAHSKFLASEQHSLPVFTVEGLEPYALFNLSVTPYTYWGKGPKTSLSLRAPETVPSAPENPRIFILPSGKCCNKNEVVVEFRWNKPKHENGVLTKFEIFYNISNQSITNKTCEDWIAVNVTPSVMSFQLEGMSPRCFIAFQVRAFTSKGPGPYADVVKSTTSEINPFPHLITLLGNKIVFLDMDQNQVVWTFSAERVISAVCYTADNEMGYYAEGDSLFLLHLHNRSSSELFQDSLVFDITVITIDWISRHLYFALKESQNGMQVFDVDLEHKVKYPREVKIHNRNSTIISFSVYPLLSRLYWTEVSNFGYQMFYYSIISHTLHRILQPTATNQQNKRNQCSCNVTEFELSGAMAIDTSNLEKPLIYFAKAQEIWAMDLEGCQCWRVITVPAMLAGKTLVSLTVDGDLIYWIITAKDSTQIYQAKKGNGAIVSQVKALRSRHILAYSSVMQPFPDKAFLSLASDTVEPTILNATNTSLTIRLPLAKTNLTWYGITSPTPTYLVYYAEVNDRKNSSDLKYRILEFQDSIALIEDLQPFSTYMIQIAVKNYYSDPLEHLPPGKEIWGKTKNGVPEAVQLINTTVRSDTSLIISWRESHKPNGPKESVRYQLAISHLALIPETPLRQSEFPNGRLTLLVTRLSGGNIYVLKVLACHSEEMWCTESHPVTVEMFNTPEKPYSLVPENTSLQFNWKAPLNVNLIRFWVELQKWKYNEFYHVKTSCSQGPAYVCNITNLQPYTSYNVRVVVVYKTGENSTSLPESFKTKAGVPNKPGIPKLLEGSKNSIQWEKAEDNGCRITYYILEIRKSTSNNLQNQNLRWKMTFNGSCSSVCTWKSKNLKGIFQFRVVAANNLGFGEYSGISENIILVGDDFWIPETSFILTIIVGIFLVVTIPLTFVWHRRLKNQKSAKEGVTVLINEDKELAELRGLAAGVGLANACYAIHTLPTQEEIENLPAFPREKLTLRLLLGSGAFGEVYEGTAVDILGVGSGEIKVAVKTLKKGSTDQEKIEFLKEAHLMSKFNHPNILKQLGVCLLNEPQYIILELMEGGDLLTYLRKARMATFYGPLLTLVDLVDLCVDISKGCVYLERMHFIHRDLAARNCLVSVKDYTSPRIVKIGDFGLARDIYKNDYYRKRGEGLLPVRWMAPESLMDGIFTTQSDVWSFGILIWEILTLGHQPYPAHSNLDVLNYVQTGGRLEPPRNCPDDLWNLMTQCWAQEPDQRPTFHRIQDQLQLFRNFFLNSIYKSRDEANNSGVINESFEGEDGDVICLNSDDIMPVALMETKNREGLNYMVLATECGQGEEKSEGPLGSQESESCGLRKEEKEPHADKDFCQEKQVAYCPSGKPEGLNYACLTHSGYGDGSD

LTK (human) = LTK (human) (UniProt P29376)
Chain of LTK (human) (P29376 whole entry, looked up): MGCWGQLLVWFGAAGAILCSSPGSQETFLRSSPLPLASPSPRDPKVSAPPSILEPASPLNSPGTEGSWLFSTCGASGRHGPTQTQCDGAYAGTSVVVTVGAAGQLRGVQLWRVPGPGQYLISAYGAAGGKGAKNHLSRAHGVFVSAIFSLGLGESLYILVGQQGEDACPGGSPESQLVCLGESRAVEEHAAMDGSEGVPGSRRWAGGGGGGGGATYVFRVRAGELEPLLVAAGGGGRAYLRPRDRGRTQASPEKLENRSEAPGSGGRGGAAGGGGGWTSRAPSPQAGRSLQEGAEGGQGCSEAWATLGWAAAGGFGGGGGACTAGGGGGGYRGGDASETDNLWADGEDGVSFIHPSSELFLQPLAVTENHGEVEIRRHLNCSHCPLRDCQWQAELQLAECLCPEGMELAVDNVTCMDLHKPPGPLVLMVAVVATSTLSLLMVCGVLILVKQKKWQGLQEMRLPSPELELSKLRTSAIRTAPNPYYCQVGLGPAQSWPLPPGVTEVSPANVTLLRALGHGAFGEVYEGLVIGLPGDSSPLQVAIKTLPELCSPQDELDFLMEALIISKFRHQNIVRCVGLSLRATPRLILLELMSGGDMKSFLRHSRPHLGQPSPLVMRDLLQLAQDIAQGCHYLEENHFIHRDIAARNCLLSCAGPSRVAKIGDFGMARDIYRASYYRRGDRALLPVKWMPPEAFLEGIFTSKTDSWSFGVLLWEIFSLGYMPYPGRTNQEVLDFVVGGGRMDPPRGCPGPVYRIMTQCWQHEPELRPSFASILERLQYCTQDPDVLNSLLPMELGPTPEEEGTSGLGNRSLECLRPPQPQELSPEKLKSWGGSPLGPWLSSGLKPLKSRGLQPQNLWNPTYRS

PASK (human) = PASK (human) (UniProt Q96RG2)
RPS6KA4 KD2 (human) = RPS6KA4 KD2 (human) (UniProt O75676)
MAP3K9 (human) = MAP3K9 (human) (UniProt P80192)
TAOK2 (human) = TAOK2 (human) (UniProt Q9UL54)
MAP3K10 (human) = MAP3K10 (human) (UniProt Q02779)
STK25 (human) = STK25 (human) (UniProt O00506)
CSNK2A2 (human) = CSNK2A2 (human) (UniProt P19784)
ULK2 (human) = ULK2 (human) (UniProt Q8IYT8)
MAP3K11 (human) = MAP3K11 (human) (UniProt Q16584)
ABL1 (human) = ABL1 (human) (UniProt P00519)
CDK4 CCND3 (human) = CDK4 CCND3 (human) (UniProt P30281+P11802)

SMILES: O=C(Nc1cccc(Nc2nccc(Nc3cccc(C(F)(F)F)c3)n2)c1)C1CC1
- residual activity (HIPK4 (human)): 111%
- residual activity (MAP3K2 (human)): 91.6%
- residual activity (PRKCG (human)): 90.9%
- residual activity (ITK (human)): 101%
- residual activity (CDK5 CDK5R1 p35 (human)): 105%
- residual activity (RPS6KB2 (human)): 96%
- residual activity (TSSK1B (human)): 100%
- residual activity (GSK3B (human)): 101%
- residual activity (STK3 (human)): 96%
- residual activity (AURKB (human)): 72.8%
- residual activity (MAP4K4 (human)): 92.4%
- residual activity (EGFR (human)): 87.6%
- residual activity (EPHB2 (human)): 97.8%
- residual activity (CAMK1D (human)): 100%
- residual activity (MAP3K8 (human)): 111%
- residual activity (PRKCZ (human)): 98.8%
- residual activity (PHKG2 (human)): 107%
- residual activity (EPHA7 (human)): 112%
- residual activity (ACVR1B (human)): 110%
- residual activity (MARK3 (human)): 102%
- residual activity (EPHA5 (human)): 96.2%
- residual activity (MAPKAPK2 (human)): 102%
- residual activity (PKN2 (human)): 89.5%
- residual activity (PNCK (human)): 106%
- residual activity (MAPK10 (human)): 99%
- residual activity (MAP2K2 (human)): 89.2%
- residual activity (TEC (human)): 158%
- residual activity (PRKCI (human)): 91.3%
- residual activity (CLK1 (human)): 102%
- residual activity (ROS1 (human)): 65.5%
- residual activity (LTK (human)): 104%
- residual activity (PASK (human)): 106%
- residual activity (RPS6KA4 KD2 (human)): 104%
- residual activity (MAP3K9 (human)): 95.2%
- residual activity (TAOK2 (human)): 92.4%
- residual activity (MAP3K10 (human)): 96.4%
- residual activity (STK25 (human)): 98.1%
- residual activity (CSNK2A2 (human)): 95.4%
- residual activity (ULK2 (human)): 107%
- residual activity (MAP3K11 (human)): 89.5%
- residual activity (ABL1 (human)): 94.9%
- residual activity (CDK4 CCND3 (human)): 103%

SMILES: O=C1NC(=O)/C(=C/c2ccc3c(c2)OC(F)(F)O3)S1
- residual activity (HIPK4 (human)): 99.4%
- residual activity (MAP3K2 (human)): 94%
- residual activity (PRKCG (human)): 101%
- residual activity (ITK (human)): 92.9%
- residual activity (CDK5 CDK5R1 p35 (human)): 103%
- residual activity (RPS6KB2 (human)): 101%
- residual activity (TSSK1B (human)): 93.3%
- residual activity (GSK3B (human)): 92.3%
- residual activity (STK3 (human)): 100%
- residual activity (AURKB (human)): 102%
- residual activity (MAP4K4 (human)): 95.3%
- residual activity (EGFR (human)): 85.1%
- residual activity (EPHB2 (human)): 95.8%
- residual activity (CAMK1D (human)): 83.2%
- residual activity (MAP3K8 (human)): 93%
- residual activity (PRKCZ (human)): 103%
- residual activity (PHKG2 (human)): 95.2%
- residual activity (EPHA7 (human)): 98.7%
- residual activity (ACVR1B (human)): 99.4%
- residual activity (MARK3 (human)): 92.3%
- residual activity (EPHA5 (human)): 100%
- residual activity (MAPKAPK2 (human)): 94.4%
- residual activity (PKN2 (human)): 113%
- residual activity (PNCK (human)): 96%
- residual activity (MAPK10 (human)): 102%
- residual activity (MAP2K2 (human)): 110%
- residual activity (TEC (human)): 108%
- residual activity (PRKCI (human)): 95.9%
- residual activity (CLK1 (human)): 102%
- residual activity (ROS1 (human)): 88.5%
- residual activity (LTK (human)): 95.5%
- residual activity (PASK (human)): 78.2%
- residual activity (RPS6KA4 KD2 (human)): 108%
- residual activity (MAP3K9 (human)): 101%
- residual activity (TAOK2 (human)): 96.9%
- residual activity (MAP3K10 (human)): 91.2%
- residual activity (STK25 (human)): 95.7%
- residual activity (CSNK2A2 (human)): 29.9%
- residual activity (ULK2 (human)): 100%
- residual activity (MAP3K11 (human)): 97.8%
- residual activity (ABL1 (human)): 98.5%
- residual activity (CDK4 CCND3 (human)): 98.2%

SMILES: COc1ccc2c(c[n+](C)c3c4cc5c(cc4ccc23)OCO5)c1OC
- residual activity (HIPK4 (human)): 95.9%
- residual activity (MAP3K2 (human)): 99.8%
- residual activity (PRKCG (human)): 87.2%
- residual activity (ITK (human)): 99.2%
- residual activity (CDK5 CDK5R1 p35 (human)): 95.7%
- residual activity (RPS6KB2 (human)): 99.6%
- residual activity (TSSK1B (human)): 97.3%
- residual activity (GSK3B (human)): 88.3%
- residual activity (STK3 (human)): 102%
- residual activity (AURKB (human)): 99.2%
- residual activity (MAP4K4 (human)): 84.9%
- residual activity (EGFR (human)): 99.6%
- residual activity (EPHB2 (human)): 97.1%
- residual activity (CAMK1D (human)): 105%
- residual activity (MAP3K8 (human)): 91.3%
- residual activity (PRKCZ (human)): 97.7%
- residual activity (PHKG2 (human)): 94.8%
- residual activity (EPHA7 (human)): 95.4%
- residual activity (ACVR1B (human)): 110%
- residual activity (MARK3 (human)): 98.7%
- residual activity (EPHA5 (human)): 94.6%
- residual activity (MAPKAPK2 (human)): 103%
- residual activity (PKN2 (human)): 93.3%
- residual activity (PNCK (human)): 103%
- residual activity (MAPK10 (human)): 100%
- residual activity (MAP2K2 (human)): 95.6%
- residual activity (TEC (human)): 116%
- residual activity (PRKCI (human)): 98.3%
- residual activity (CLK1 (human)): 101%
- residual activity (ROS1 (human)): 119%
- residual activity (LTK (human)): 95.9%
- residual activity (PASK (human)): 91.1%
- residual activity (RPS6KA4 KD2 (human)): 88.3%
- residual activity (MAP3K9 (human)): 98.1%
- residual activity (TAOK2 (human)): 95%
- residual activity (MAP3K10 (human)): 91.7%
- residual activity (STK25 (human)): 98.8%
- residual activity (CSNK2A2 (human)): 89.7%
- residual activity (ULK2 (human)): 92%
- residual activity (MAP3K11 (human)): 95%
- residual activity (ABL1 (human)): 92.7%
- residual activity (CDK4 CCND3 (human)): 98.8%
